The values below come from patent US10668094B2, “Selective inhibitors of Alpha2-containing isoforms of Na,K-ATPase and use thereof for reduction of intraocular pressure” (Yeda Research and Development Co. Ltd., priority 2015, dated 2020).

In assay [1] the target is human Na,K-ATPase α1β1FXYD1 (Homo sapiens (Human), UniProt P05023). The assay is classed as biochemical.
For assay [2], the target named is human Na,K-ATPase α2β1FXYD1 (Homo sapiens, UniProt P50993). The assay is classed as biochemical.
In assay [3] the test system is human Na,K-ATPase α2β1FXYD1. The assay is classed as biochemical.
For assay [4], the target named is human Na,K-ATPase α2β2FXYD1 (Homo sapiens (Human), UniProt P50993). The assay is classed as biochemical.
In assay [5] the target is human Na,K-ATPase α2β3FXYD1 (Homo sapiens (Human), UniProt P50993+P54709). In words: biochemical. The assay is classed as biochemical.
The subject of assay [6] is basal IOP in rabbits. In words: Basal IOP in rabbits, topical administration. The assay is classed as in vivo, rabbit.

Like-named read-outs stand apart in the source and are kept apart here.

Regarding `CC1CN(CCS(N)(=O)=O)CCC(O[C@@H]2C(C)O[C@@H](OC3C(C)OC(O[C@H]4CC[C@@]5(C)C(CCC6C5CC(O)[C@]5(C)[C@@H](C7=CC(=O)OC7)CC[C@]65O)C4)C[C@@H]3O)C[C@@H]2O)O1` (stereo in doubt) [DESA, 2-(7-(((2R,3S,4S,6S)-6-(((2R,3R,4S,6S)-6-(((3S,5R,8R,9S,10S,12R,13S,14S,17R)-12,14-dihydroxy-10,13-dimethyl-17-(5-oxo-2,5-dihydrofuran-3-yl)hexadecahydro-1H-cyclopenta[a]phenanthren-3-yl)oxy)-4-hydroxy-2-methyltetrahydro-2H-pyran-3-yl)oxy)-4-hydroxy-2-methyltetrahydro-2H-pyran-3-yl)oxy)-2-methyl-1,4-oxazepan-4-yl)ethanesulfonamide], the Ki in assay [1] (read-out: Ki in nM ± SEM α1β1) was found to be 301 ± 23 nM; in assay [2] (read-out: Ki in nM ± SEM α2β1), 38.9 ± 2.2 nM; in assay [4] (read-out: Ki in nM ± SEM α2β2), 31.5 ± 4.4 nM; in assay [5] (read-out: Ki in nM ± SEM α2β3), 20.1 ± 0.9 nM. For the same compound, the “Selectivity Ki ratio α1β1/α2β1” value in assay [3] was determined as 7.7. Moreover, the “Selectivity Ki ratio α1β1/α2β2” value in assay [4] worked out at 9.5. Further, in assay [5], the “Selectivity Ki ratio α1β1/α2β3” value came to 15.

As for `CC1CN(CCS(C)(=O)=O)CCC(O[C@@H]2C(C)O[C@@H](OC3C(C)OC(O[C@H]4CC[C@@]5(C)C(CCC6C5CC(O)[C@]5(C)[C@@H](C7=CC(=O)OC7)CC[C@]65O)C4)C[C@@H]3O)C[C@@H]2O)O1` (stereo in doubt) [DESM, 4-((3S,5R,8R,9S,10S,12R,13S,14S,17R)-12,14-dihydroxy-3-(((2S,4S,5R,6R)-4-hydroxy-5-(((2S,4S,5S,6R)-4-hydroxy-6-methyl-5-((2-methyl-4-(2-(methylsulfonyl)ethyl)-1,4-oxazepan-7-yl)oxy)tetrahydro-2H-pyran-2-yl)oxy)-6-methyltetrahydro-2H-pyran-2-yl)oxy)-10,13-dimethylhexadecahydro-1H-cyclopenta[a]phenanthren-17-yl)furan-2(5H)-one], the Ki in assay [1] (read-out: Ki in nM ± SEM α1β1) came to 464 ± 14 nM; in assay [2] (read-out: Ki in nM ± SEM α2β1), 49.2 ± 1.9 nM; in assay [4] (read-out: Ki in nM ± SEM α2β2) it was 31.7 ± 3.2 nM; in assay [5] (read-out: Ki in nM ± SEM α2β3), 24.7 ± 2.1 nM. The “Selectivity Ki ratio α1β1/α2β1” value in assay [3] was determined as 9.4. Besides, in assay [4], the “Selectivity Ki ratio α1β1/α2β2” value is reported as 14.6. For the same compound, the “Selectivity Ki ratio α1β1/α2β3” value in assay [5] is 18.8.

Regarding `CC1CN(CS(C)(=O)=O)CCC(O[C@@H]2C(C)O[C@@H](OC3C(C)OC(O[C@H]4CC[C@@]5(C)C(CCC6C5CC(O)[C@]5(C)[C@@H](C7=CC(=O)OC7)CC[C@]65O)C4)C[C@@H]3O)C[C@@H]2O)O1` (stereo in doubt) [DMSM, 4-((3S,5R,8R,9S,10S,12R,13S,14S,17R)-12,14-dihydroxy-3-(((2S,4S,5R,6R)-4-hydroxy-5-(((2S,4S,5S,6R)-4-hydroxy-6-methyl-5-((2-methyl-4-((methylsulfonyl)methyl)-1,4-oxazepan-7-yl)oxy)tetrahydro-2H-pyran-2-yl)oxy)-6-methyltetrahydro-2H-pyran-2-yl)oxy)-10,13-dimethylhexadecahydro-1H-cyclopenta[a]phenanthren-17-yl)furan-2(5H)-one], the Ki was determined as 944 ± 123 nM in assay [1] (read-out: Ki in nM ± SEM α1β1), 137 ± 9.8 nM in assay [2] (read-out: Ki in nM ± SEM α2β1), 123 ± 7.3 nM in assay [4] (read-out: Ki in nM ± SEM α2β2) and 89 nM in assay [5] (read-out: Ki in nM ± SEM α2β3). For the same compound, the “Selectivity Ki ratio α1β1/α2β1” value in assay [3] stood at 6.9. In assay [4], the “Selectivity Ki ratio α1β1/α2β2” value is on record as 7.7. Also, the “Selectivity Ki ratio α1β1/α2β3” value in assay [5] is 10.6.

`CC1CN(C2CCCCC2)CCC(O[C@@H]2C(C)O[C@@H](OC3C(C)OC(O[C@H]4CC[C@@]5(C)C(CCC6C5CC(O)[C@]5(C)[C@@H](C7=CC(=O)OC7)CC[C@]65O)C4)C[C@@H]3O)C[C@@H]2O)O1` (stereo in doubt) [DcH, 4-((3S,5R,8R,9S,10S,12R,13S,14S,17R)-3-(((2S,4S,5R,6R)-5-(((2S,4S,5S,6R)-5((4-cyclohexyl-2-methyl-1,4-oxazepan-7-yl)oxy)-4-hydroxy-6-methyltetrahydro-2H-pyran-2-yl)oxy)-4-hydroxy-6-methyltetrahydro-2H-pyran-2-yl)oxy)-12,14-dihydroxy-10,13-dimethylhexadecahydro-1H-cyclopenta[a]phenanthren-17-yl)furan-2(5H)-one]: the Ki in assay [1] (read-out: Ki in nM ± SEM α1β1) came to 70.4 ± 4.1 nM; in assay [2] (read-out: Ki in nM ± SEM α2β1), 15.2 ± 3.7 nM; in assay [4] (read-out: Ki in nM ± SEM α2β2), 15.3 ± 2.9 nM; in assay [5] (read-out: Ki in nM ± SEM α2β3) it was 11.7 ± 4.5 nM. Moreover, in assay [3], the “Selectivity Ki ratio α1β1/α2β1” value stood at 4.6. Moreover, the “Selectivity Ki ratio α1β1/α2β2” value in assay [4] was determined as 4.6. Moreover, in assay [5], the “Selectivity Ki ratio α1β1/α2β3” value was found to be 10.1. In assay [5], the “selectivity for α2β3 over α1β1 (Ki α1β1:α2β3 ratio)” value (shortened to “selectivity … (Ki α1β1:α2β3 ratio)”) is listed as 10-12 fold.

`CC1CN(C2CCCC2)CCC(O[C@@H]2C(C)O[C@@H](OC3C(C)OC(O[C@H]4CC[C@@]5(C)C(CCC6C5CC(O)[C@]5(C)[C@@H](C7=CC(=O)OC7)CC[C@]65O)C4)C[C@@H]3O)C[C@@H]2O)O1` (stereo in doubt) [DcPe, 4-((3S,5R,8R,9S,10S,12R,13S,14S,17R)-3-(((2S,4S,5R,6R)-5-(((2S,4S,5S,6R)-5-((4-cyclopentyl-2-methyl-1,4-oxazepan-7-yl)oxy)-4-hydroxy-6-methyltetrahydro-2H-pyran-2-yl)oxy)-4-hydroxy-6-methyltetrahydro-2H-pyran-2-yl)oxy)-12,14-dihydroxy-10,13-dimethylhexadecahydro-1H-cyclopenta[a]phenanthren-17-yl)furan-2(5H)-one]: the Ki in assay [1] (read-out: Ki in nM ± SEM α1β1) came out at 138 ± 21 nM; in assay [2] (read-out: Ki in nM ± SEM α2β1), 33.4 ± 7.5 nM; in assay [4] (read-out: Ki in nM ± SEM α2β2) it was 33.5 ± 11.9 nM; in assay [5] (read-out: Ki in nM ± SEM α2β3), 27.6 ± 9.5 nM. Further, the “Selectivity Ki ratio α1β1/α2β1” value in assay [3] amounted to 4.1. Besides, the “Selectivity Ki ratio α1β1/α2β2” value in assay [4] was found to be 4.1. The “Selectivity Ki ratio α1β1/α2β3” value in assay [5] came out at 5. Moreover, the “selectivity … (Ki α1β1:α2β3 ratio)” value in assay [5] is on record as 10-12 fold.

As for `CC1CN(Cc2ccccc2)CCC(O[C@@H]2[C@H](C)O[C@@H](O[C@@H]3[C@H](C)O[C@@H](O[C@H]4CC[C@@]5(C)C(CCC6C5C[C@H](O)[C@]5(C)[C@@H](C7=CC(=O)OC7)CC[C@]65O)C4)C[C@@H]3O)C[C@@H]2O)O1` (stereo partly drawn) [DBz, 4-(3S,5R,8R,9S,10S,12R,13S,14S,17R)-3-(((2S,4S,5R,6R)-5-(((2S,4S,5S,6R)-5 ((4-benzyl-2-methyl-1,4-oxazepan-7-yl)oxy)-4-hydroxy-6-methyltetrahydro-2H-pyran-2-ypoxy)-4-hydroxy-6-methyltetrahydro-2H-pyran-2-yl)oxy)-12,14-dihydroxy-10,13-dimethythexadecahydro-1H-cyclopenta[a]phenanthren-17-yl)furan-2(5H)-one], the Ki in assay [1] (read-out: Ki in nM ± SEM α1β1) was 57.9 ± 15.5 nM; in assay [2] (read-out: Ki in nM ± SEM α2β1), 10.1 ± 2.2 nM; in assay [4] (read-out: Ki in nM ± SEM α2β2), 6.8 ± 1.2 nM; in assay [5] (read-out: Ki in nM ± SEM α2β3), 5.6 ± 1.6 nM. In assay [3], the “Selectivity Ki ratio α1β1/α2β1” value was found to be 5.7. Also, the “Selectivity Ki ratio α1β1/α2β2” value in assay [4] came out at 8.5. In addition, the “Selectivity Ki ratio α1β1/α2β3” value in assay [5] is reported as 10.3. Moreover, in assay [5], the “selectivity … (Ki α1β1:α2β3 ratio)” value is 10-12 fold.

For `CC1CN(CC(F)(F)F)CCC(O[C@@H]2[C@H](C)O[C@@H](O[C@@H]3[C@H](C)O[C@@H](O[C@H]4CC[C@@]5(C)C(CCC6C5C[C@H](O)[C@]5(C)[C@@H](C7=CC(=O)OC7)CC[C@]65O)C4)C[C@@H]3O)C[C@@H]2O)O1` (some centres unmarked) [DCF3], the Ki in assay [1] (read-out: Ki in nM ± SEM α1β1) was found to be 119 nM; in assay [2] (read-out: Ki in nM ± SEM α2β1), 28.6 ± 0.9 nM; in assay [4] (read-out: Ki in nM ± SEM α2β2), 18.1 ± 1.9 nM; in assay [5] (read-out: Ki in nM ± SEM α2β3) it was 12.4 ± 1.5 nM. Moreover, the “Selectivity Ki ratio α1β1/α2β1” value in assay [3] was 4.1. Also, the “Selectivity Ki ratio α1β1/α2β2” value in assay [4] is 6.5. The “Selectivity Ki ratio α1β1/α2β3” value in assay [5] turned out to be 9.6.

On to `CC(C)OC(=O)CCC/C=C\C[C@@H]1[C@@H](CC[C@@H](O)CCc2ccccc2)[C@H](O)C[C@@H]1O` [Latanoprost, reference compound], for which the “time after which IOP returned to the control value” in assay [6] (1 mM DcB, 0.005% Latanoprost) came to 12 h. In assay [6] (after 3-8 hours), the “steady-state IOP as % of the unchanged control values” amounted to 85%. Further, in assay [6] (after 3-8 hours, basal IOP 17-18 mmHg, 1 mM DcB, 0.005% Latanoprost), the “steady-state IOP lower than basal IOP” value was found to be 2.6±0.11 mmHg.

On to `CC(=O)O[C@H]1C[C@H](O[C@H]2[C@@H](OC(C)=O)C[C@H](O[C@H]3CC[C@@]4(C)[C@H](CC[C@@H]5[C@@H]4C[C@@H](OC(C)=O)[C@]4(C)[C@@H](C6=CC(=O)OC6)CC[C@]54O)C3)O[C@@H]2C)O[C@H](C)[C@H]1OC1CCN(C2CCC2)CC(C)O1` (stereo partly drawn) [TrisAcDcB, (2R,3R,4S,6R)-6-(((3S,5R,8R,9S,10S,12R,13S,14S,17R)-12-acetoxy-14-hydroxy-10,13-dimethyl-17-(5-oxo-2,5-dihydrofuran-3-yl)hexadecahydro-1H-cyclopenta[a]phenanthren-3-yl)oxy)-3-(((2S,4S,5R,6R)-4-acetoxy-5-((4-cyclobutyl-2-methyl-1,4-oxazepam-7-yl)oxy)-6-methyltetrahydro-2H-pyran-2-yl)oxy)-2-methyltetrahydro-2H-pyran-4-yl acetate], for which the “Ki of α1β1 higher than that of DcB” value in assay [1] is given as around 100 fold. Moreover, the results for the Ki in assay [1] (read-out: Ki of α1β1FXYD1) and in assay [2] (read-out: Ki of α2β1FXYD1) were 13200 ± 6500 nM and 2500 ± 490 nM, respectively. Moreover, in assay [6] (0.05, 0.1, 0.2 mM), the “time of return of IOP to the control level” value was determined as 12 h. Besides, the “time to minimum IOP” value in assay [6] (0.05, 0.1, 0.2 mM) was in the range of 5 to 6 h. For the same compound, the “maximal effect on IOP compared with parent DcB” value in assay [6] (0.05-0.2 mM prodrug) is recorded as “essentially equal to that produced by the parent DcB”. In addition, in assay [6] (from 15-16 mmHg, 0.05, 0.1, 0.2 mM), the “minimum IOP” value worked out at 12 mmHg. The “onset of effect on basal IOP” value in assay [6] (one 30 μl drop, 0.05, 0.1, 0.2 mM) was “no effect was observed at the first four hours”. The “Ki of α2β1 higher than that of DcB” value in assay [2] is around 300 fold.

As for `[O]=[V]([OH])([OH])[OH]` [Vanadate, vanadate, reference compound], the Ki in assay [1] (read-out: apparent vanadate affinity α1β1) stood at 480 nM; in assay [2] (Example 2, vanadate titration, read-out: apparent vanadate affinity α2β1), 3500 nM; in assay [4] (read-out: apparent vanadate affinity α2β2) it was 34000 nM; in assay [5] (read-out: apparent vanadate affinity α2β3), 1900 nM.
